Series [1] has as its system LNCAP. Kind of series: Inhibition of cell proliferation, LNCAP. It counts as cell-based, human. Particulars: 10^−11 M to 10^−7 M, 6-7 days. As for the experimental part: (§1) The cell lines, LNCAP and PC-3, which are derived from human prostate adenocarcinoma, are seeded in six-well tissue culture plates at a density of about 50,000 cells/plate. After the cells have attached and stabilized, about 2-3 days, the medium is replenished with medium containing vehicle or the active vitamin D analogue 1α,24-(OH)2D2, at concentrations from 10^−11 M to 10^−7 M. Medium containing test analogue or vehicle is replaced every three days. After 6-7 days, the medium is removed, the cells are rinsed, precipitated with cold 5% trichloroacetic acid, and washed with cold ethanol. The cells are solubilized with 0.2 N sodium hydroxide, and the amount of DNA determined by standard procedures.

A further series concerns PC-3. Kind of series: Inhibition of cell proliferation, PC-3. Particulars: 10^−11 M to 10^−7 M, 6-7 days. Format: cell-based, human. On the procedure:
as §1

In series [2] the test system is LNCAP. In words: Cell differentiation, PSA production in LNCaP. Particulars: 10^−11 M to 10^−7 M, 6-7 days. Format: cell-based, human. On the procedure: Using the techniques of Skowronski et al., 132 Endocrinology (1993) 1952-1960 and 136 Endocrinology (1995) 20-26, both of which are incorporated herein by reference, cells of the cell line, LNCaP, which is derived from a human metastatic prostate adenocarcinoma and known to express PSA, are seeded in six-well tissue culture plates at a density of about 50,000 cells/plate. After the cells have attached and stabilized, about 2-3 days, the medium is replenished with medium containing vehicle or the active vitamin D analogue, 1α,24-(OH)2D2, at concentrations from 10^−11 M to 10^−7 M. After 6-7 days, medium is removed and stored at −20° C. for prostate specific antigen (PSA) analysis.
The cells from parallel cultures are rinsed, precipitated, and the amount of DNA determined by standard procedures. PSA is measured by standard known methods.

The test system of series [3] is advanced androgen-independent prostate cancer. Kind of series: Treatment of advanced androgen-independent prostate cancer, open-labeled study. Format: in vivo, human. The following applies: for progression of metastatic disease: after one and two years. The text has this:
Patients with advanced androgen-independent prostate cancer participate in an open- labeled study of 1α,24-(OH)2D2. […] On admission to the study, patients begin a course of therapy with oral 1α,24-(OH)2D2 lasting 26 weeks, while discontinuing any previous use of calcium supplements, vitamin D supplements, and vitamin D hormone replacement therapies. During treatment, the patients are monitored at regular intervals for: (1) hypercalcemia, hyperphosphatemia, hypercalciuria, hyperphosphaturia and other toxicity; (2) evidence of changes in the progression of metastatic disease; and (3) compliance with the prescribed test drug dosage.
The study is conducted in two phases. During the first phase, the maximal tolerated dosage (MTD) of daily oral 1α,24-(OH)2D2 is determined by administering progressively higher dosages to successive groups of patients. All doses are administered in the morning before breakfast. […] Subsequent groups of patients are treated with 50.0, 75.0 and 100.0 μg/day.
During the second phase, patients are treated with 1α,24-(OH)2D2 for 24 months at 0.5 and 1.0 times the MTD.

Series [4] has as its system 1,25-(OH)2D3 receptor site. Particulars: Ishizuka et al., Steroids 1981, 1982; cited from earlier work.

Results on two compounds are retold here after US6538037B2, “Methods for preparation and use of 1α,24(S)-dihydroxyvitamin D2” (Bone Care International, Inc., priority 1991, dated 2003).

On to `C=C1/C(=C\C=C2/CCC[C@]3(C)[C@@H]([C@H](C)/C=C/C(C)(O)C(C)C)CC[C@@H]23)C[C@@H](O)C[C@@H]1O` (relative stereo) [1α,24-(OH)2D2, 5,6-cis-1α,24-dihydroxyvitamin D2], for which the “cell number (amount of DNA) versus control cultures” value in the series on LNCAP [1] and in the series with PC-3 was “significantly fewer cells than the control cultures” throughout. Besides, in the series with LNCAP [2], the “PSA expressed as mass of PSA/cell versus control cultures” value is reported as “significantly more PSA than control cultures”. In addition, the “bone pain associated with metastatic disease” value in series [3] (MTD for at least six months) was “significantly diminished”. Also, in series [3] (at the highest dosages), the “maximum levels of circulating 1α,24-(OH)2D2” value is reported as “above 100 pg/mL”. Also, in series [3] (during treatment), the “circulating levels of 1α,25-(OH)2D3” value is recorded as “suppressed, often to undetectable levels”. Also, the “progression of metastatic disease” value in series [3] (higher dosage (1.0 times the MTD)) was “stable disease and partial or complete remission in many patients”; in series [3] (lower dosage (0.5 times the MTD)) it was “stable disease or partial remission in many patients”. Moreover, the “levels of circulating 1α,24-(OH)2D2 versus dosage” value in series [3] (in vivo) is “increase proportionately with the dosage administered”. The “serum and urine calcium” value in series [3] (in vivo) was “elevated in a dose responsive manner”.

As to `C=C1/C(=C\C=C2/CCC[C@]3(C)[C@@H]([C@H](C)CC[C@@H](O)C(C)C)CC[C@@H]23)C[C@@H](O)C[C@@H]1O` [1α,24(R)-(OH)2D3, 1α,24(R)-dihydroxyvitamin D3], in series [4], the “binding to the 1,25-(OH)2D3 receptor site relative to 1,25-(OH)2D3” value was “more tightly than does 1,25-(OH)2D3 itself”.
